For series [1], the system named is Nanogam (human immunoglobulins). The series can be described thus: Reduction in aggregation of Nanogam at its isoelectric point (light scattering at 12.8°, Malvern NanoZS). The class given is physicochemical. Conditions: 40 mg/ml human immunoglobulins, pH 8.5 (pI), relative to Nanogam at pH 4.3. The protocol:
The Nanogam formulation is a formulation of human immunoglobulins at 50 mg/ml and at pH 4.3 containing various IgG subclasses (IgG1: 54-70%, IgG2: 29-45%, IgG3: 1-4%, IgG4: 0-0.5%, IgA: at most 6 μg/ml). […] A test with various compounds is therefore carried out at the isoelectric point in order to identify the compounds which make it possible to reduce this aggregation phenomenon.
A commercial solution of Nanogam at 50 mg/ml is used. […] Mixing between the solution of Nanogam and one of the solutions of compound is carried out in order to obtain a solution containing 40 mg/ml of human immunoglobulins and the desired concentration of compound. The pH of the various solutions is adjusted to pH 8.5 by adding hydrochloric acid or sodium hydroxide depending on the pH achieved following the mixing between the compound of interest and the solution of human immunoglobulins.
The mixtures are then analyzed by light scattering on a Malvern NanoZS instrument.
The scattered intensities are measured at 12.8°.

A further series addresses T1, human insulin (Homo sapiens, UniProt P01308).
T1 construct: A solution of human insulin at 500 IU/ml is prepared
The series is described as follows: Solubilization of human insulin at its isoelectric point (visual appearance, soluble fraction by RP-HPLC). It counts as physicochemical. Also on record: key to Visual appearance: Cloudy: If the solution is cloudy, the compound at the concentration tested does not allow total solubilization of human insulin at its isoelectric point; Clear: If the solution is clear, the compound allows total solubilization of human insulin at the concentration tested. Conditions: 100 IU/ml human insulin, pH 5.3 (pI). The protocol: Human insulin has an isoelectric point (pI) of 5.3. […] A test of solubility at the pI of human insulin with various compounds is carried out. […] Solutions of compounds at various concentrations in water are prepared as described in examples B1 to B4. […] The pH of the various solutions is adjusted to pH 5.3 by adding hydrochloric acid or sodium hydroxide depending on the pH achieved following the mixing between the compound and the solution of human insulin. The appearance of the solution is documented. […] If the solution is clear, the compound allows total solubilization of human insulin at the concentration tested. In addition, the mixtures are centrifuged at 4000 rpm for 10 minutes in a Hereaus Biofuge Pico centrifuge (Rotor #3328) and then filtered through 0.22 μm in order to remove the precipitate. The resulting soluble fractions are then assayed by RP-HPLC (column: Sunfire C18, Waters ref:186003417; mobile phase: sodium phosphate/acetonitrile gradient; detection: UV at 276 nm) with an external insulin range in order to quantify the percentage of soluble insulin at the pI.

For series [2] the following is noted: at pH 5.3 (pI); cited from earlier work.
Where [3] appears, read: compound 180 mmol/l, molar ratio compound/Nanogam 675.
[4] abbreviates: compound 75 mmol/l, molar ratio compound/insulin 125.
[5] abbreviates: compound 150 mmol/l, molar ratio compound/insulin 250.
Where [6] appears, read: compound 300 mmol/l, molar ratio compound/insulin 500.
[7] abbreviates: compound 120 mmol/l, molar ratio compound/insulin 200.
The mark [8] stands for this setting: compound 750 mmol/l, molar ratio compound/insulin 1250.

T1 sequence (P01308 25-54 limits assumed): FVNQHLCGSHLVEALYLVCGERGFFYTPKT
T1 sequence (P01308 90-110 limits assumed): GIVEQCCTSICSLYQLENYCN

In the case of `O=C(O)Cc1ccccc1` [Phenylacetic acid], the “Iscat 12.8° standardized” value in series [1] (setting [3]) came to 20.082.
For the compound “Human insulin control: Human insulin at 100 IU/ml, pH 5.3, without solubilizing compound”, in the series with human insulin (control without compound), the “Soluble insulin recovery (%)” value was found to be 11% and the Visual appearance entry is listed as “Cloudy”. In addition, the “Concentration at which human insulin precipitates” value in series [2] is listed as “greater than or equal to 10 IU/ml”.
For `N[C@@H](Cc1c[nH]cn1)C(=O)O` [Histidine, L-histidine, reference compound], on human insulin (setting [4]), the “Soluble insulin recovery (%)” value was 48% and the Visual appearance entry is “Cloudy”. The “Iscat 12.8° standardized” value in series [1] (compound 40 mmol/l, molar ratio compound/Nanogam 150) was found to be 80.82.
Consider `OC[C@H]1O[C@@](CO)(O[C@H]2O[C@H](CO)[C@@H](O)[C@H](O)[C@H]2O)[C@@H](O)[C@@H]1O` [Sucrose, reference compound], for which, on human insulin (setting [5]), the “Soluble insulin recovery (%)” value is 67% and the Visual appearance result is listed as “Cloudy”. Further, on human insulin (setting [6]), the “Soluble insulin recovery (%)” value was 35% and the Visual appearance result is “Cloudy”.
Regarding `CC(Oc1ccccc1)C(=O)O` (stereo not drawn) [2-Phenoxypropionic acid], in series [1] (setting [3]), the “Iscat 12.8° standardized” value was found to be 6.38.
In the case of `CC(=O)O` [Acetic acid, reference compound], the “Iscat 12.8° standardized” value in series [1] (setting [3]) was determined as 200.18.
For the compound `O=C(CO)N[C@@H](Cc1c[nH]c2ccccc12)C(=O)O` [Molecule A2, N-(2-hydroxyacetyl)-L-tryptophan], on human insulin (setting [7]), the “Soluble insulin recovery (%)” value was determined as 100% and the Visual appearance result is recorded as “Clear”.
Take `O=C(O)C(O)c1ccccc1` (stereo not drawn) [Mandelic acid]: on human insulin (setting [8]), the “Soluble insulin recovery (%)” value stood at 100% and the Visual appearance result is reported as “Clear”. Also, the “Iscat 12.8° standardized” value in series [1] (compound 27.5 mmol/l, molar ratio compound/Nanogam 675) was determined as 22.15.
As to `O=C(CO)N[C@@H](Cc1ccccc1)C(=O)O` [Molecule A1, N-(2-hydroxyacetyl)-L-phenylalanine], on human insulin (setting [6]), the “Soluble insulin recovery (%)” value came to 100% and the Visual appearance result is given as “Clear”. For the same compound, in series [1] (compound 85 mmol/l, molar ratio compound/Nanogam 320), the “Iscat 12.8° standardized” value was determined as 23.5.

The values are drawn from patent publication US10525133B2, “Aqueous composition comprising at least one protein and one solubilizing agent, preparation thereof and uses thereof” (ADOCIA, priority 2014, dated 2020).
